From patent US9938301B2, “Dihydropyrimido fused ring derivative as HBV inhibitor” (QILU PHARMACEUTICAL CO., LTD., priority 2014, dated 2018)
Like-named read-outs stand apart in the source and are kept apart here.

Test system: HBV DNA in HepG2.2.15 cells
Experiment: HBV in vitro dot-blot hybridization test
Assay type: cell-based, Hepatitis B virus
Details: Hepatitis B virus
Protocol: • 1. Purpose of the test: • The content of HBV DNA in HepG2.2.15 cells was detected by dot-blot hybridization test to evaluate an inhibitory action of the compound on HBV with an EC50 value as an indicator. • 2. Experimental materials: • 2.1 Cell lines: HepG2.2.15 Cells • HepG2.2.15 cell culture media (DMEM/F12, Invitrogen-11330057; 10% serum Invitrogen-10099141; 100 units/mL Penicillin and 10 μg/mL Streptomycin, Invitrogen-15140122; 1% non-essential amino acid, Invitrogen-11140076; 2 mM L-GLUTAMINE, Invitrogen-25030081; 300 µg/ml Geneticin, Invitrogen-10131027 • 2.2 Reagents: • Trypsin (I Invitrogen-25300062) • DPBS (Hyclone-SH30028.01B) • DMSO (Sigma-D2650-100ML) • 96-well cell-culture plate (Corning-3599) • CO2 incubator (HERA-CELL-240) • 20×SSC (Bio-serve Co. Ltd) • Tris-HCl (Aldirch-154563-1KG) • NaOH (Sinopharm 10019718) • NaCl (Sinopharm 10019308) • Hybridization solution (Major BioTech Co. Ltd, IMMUNE GOLD-HYB-500) • DIG Wash and Block Buffer set (Roche-11585762001) • Anti-digoxigenin-AP, Fab fragments from sheep (Roche-11093274910) • 2.3 Materials and Instruments: • Positively-Charged Nylon Membrane (GE-RPN2250B) • Transfer Membrane Instrument (Bio-Rad, 170-6545) • Hybridization Oven (HL-2000 Hybrilinker) • 3. Testing steps and Methods: • 3.1 HepG2.2.15 cells (4×10^4 cells/well) were planted into a 96-well plate, and at 37° C., 5% CO2 cultured overnight. • 3.2 On Day 2, the compounds were diluted in totally 6 concentrations with a dilution gradient of five times. The compounds at different concentrations were added into the culture wells in duplicate. The final concentration of DMSO in the culture media was 1%. 1 μM GLS4 was used as 100% inhibition control; 1% DMSO as 0% inhibition control. • 3.3 On Day 5, replacing with the fresh culture media containing the compound was performed. • 3.4 On Day 8 and Day 9, the culture media in the culture wells was removed, and the cells were harvested for dot-blot hybridization. • The lysate was added into a culture well, and at 37° C. incubating for half an hour to disintegrate cells; the supernatant was obtained by centrifugation and transferred into a new microplate; a denaturation solution was added, after sufficient mixing the denatured sample was transferred and imprinted onto a Nylon membrane, the nucleic acid was fixed onto the membrane by UV cross-linking. • Pre-hybridization: the membrane was incubated at 60° C. in a hybridization solution for 1 hour. • Hybridization: heating the denatured digoxin-labelled HBV DNA probe and incubating at 60° C. overnight. • Membrane Washing: performing high strigency washing twice, low strigency washing for 3 times. • Blocking: incubating the membrane at room temperature in a blocking solution for 30-60 minutes. • Hybridization: diluting the Antibody Solution with the blocking solution, in which the membrane was placed and incubated at room temperature for 30-60 minutes. • Developing: washing the membrane in a Detection Buffer for 5 minutes, followed by adding a developing solution, pressing and exposing. • The photos was saved in tiff format, and a gray value of the dot was quantified with quantity one software. • 3.5 Data Analysis: • 3.5.1 The inhibition percentage was calculated: % Inh.=[1−(sample dot gray value−1 μM GLS4 dot gray value 1)/(DMSO control dot gray value−1 μM GLS4 dot gray value 1)]×100. • 3.5.2 Calculating EC50: the concentration of the compound for 50% inhibition of HBV (EC50) was calculated by using GraphPad Prism Software. • 4.

[1] = HepG2.2.15, dot-blot hybridization assay, read-out: Concentration for 50% inhibition of HBV (EC50)value
[2] = HepG2.2.15, summary list of target compounds, Examples 1-165 (same as Table 2), read-out: BIOACTIVITY (inhibitory actions on HBV DNA, EC50)

SMILES	EC50 [1] [nM]	EC50 [2] [nM]
CCOC(=O)C1=C2C[C@H](NS(=O)(=O)C3CC3)CN2C(c2nccs2)=N[C@H]1c1ccc(F)cc1Br [Example 62]	< 100	< 100
CCOC(=O)C1=C2CC(NS(=O)(=O)C(F)(F)F)CN2C(c2nccs2)=N[C@H]1c1ccc(F)cc1Br (stereo partly shown) [Example 63]	100 to 500	100 to 500
CCOC(=O)C1=C2C[C@H](NS(=O)(=O)C(F)(F)F)CN2C(c2nccs2)=N[C@H]1c1ccc(F)cc1Br [Example 64]	100 to 500	100 to 500
CCOC(=O)C1=C2C[C@@H](N3CCOC3=O)CN2C(c2nccs2)=N[C@H]1c1ccc(F)cc1Br [Example 65]	100 to 500	100 to 500
CCOC(=O)C1=C2C[C@H](N3CCOC3=O)CN2C(c2nccs2)=N[C@H]1c1ccc(F)cc1Br [Example 66]	100 to 500	100 to 500
CCOC(=O)C1=C2CN(C(=O)OCC)CCN2C(c2nccs2)=NC1c1ccc(F)cc1Br (stereo not shown) [Example 82]	100 to 500	100 to 500
CCOC(=O)C1=C2CN(S(=O)(=O)NC)CCN2C(c2nccs2)=N[C@H]1c1ccc(F)cc1Br [Example 84]	100 to 500	100 to 500
CCOC(=O)C1=C2CN(C(=O)OC)CCN2C(c2nccs2)=N[C@H]1c1ccc(F)cc1Br [Example 85]	100 to 500	100 to 500
CCOC(=O)C1=C2CN(C(=O)NC)CCN2C(c2nccs2)=N[C@H]1c1ccc(F)cc1Br [Example 88]	500 to 1000	500 to 1000
CCOC(=O)C1=C2CN(C(=O)CN)CCN2C(c2nccs2)=N[C@H]1c1ccc(F)cc1Br [Example 89]	1000 to 5000	1000 to 5000
CCOC(=O)C1=C2CN(C(=O)C3(C)COC3)CCN2C(c2nccs2)=N[C@H]1c1ccc(F)cc1Br [Example 90]	100 to 500	100 to 500
CCOC(=O)C1=C2CN(C(=O)C3CC3)CCN2C(c2nccs2)=N[C@H]1c1ccc(F)cc1Br [Example 91]	100 to 500	100 to 500
CCOC(=O)C1=C2CN(C(=O)C(C)C)CCN2C(c2nccs2)=N[C@H]1c1ccc(F)cc1Br [Example 92]	< 100	< 100
CCOC(=O)C1=C2CN(S(=O)(=O)C3CC3)CCN2C(c2nccs2)=N[C@H]1c1ccc(F)cc1Br [Example 93]	100 to 500	100 to 500
CCOC(=O)C1=C2CN(Cc3cc(C)on3)CCN2C(c2nccs2)=N[C@H]1c1ccc(F)cc1Br [Example 94]	1000 to 5000	1000 to 5000
CCOC(=O)C1=C2CN(CC(=O)OC)CCN2C(c2nccs2)=N[C@H]1c1ccc(F)cc1Br [Example 98]	1000 to 5000	1000 to 5000
CCOC(=O)C1=C2CN(CC(=O)O)CCN2C(c2nccs2)=N[C@H]1c1ccc(F)cc1Br [Example 99]	1000 to 5000	1000 to 5000
CCOC(=O)C1=C2CN(Cc3cocn3)CCN2C(c2nccs2)=NC1c1ccc(F)cc1Br (stereo not shown) [Example 100]	1000 to 5000	1000 to 5000
CCOC(=O)C1=C2CN(C#N)CCN2C(c2nccs2)=N[C@H]1c1ccc(F)cc1Br [Example 101]	500 to 1000	500 to 1000
CCOC(=O)C1=C2CN(C3COC3)CCN2C(c2nccs2)=N[C@H]1c1ccc(F)cc1Br [Example 102]	500 to 1000	500 to 1000
CCNC(=S)N1CCN2C(c3nccs3)=N[C@@H](c3ccc(F)cc3Br)C(C(=O)OCC)=C2C1 [Example 103]	100 to 500	100 to 500
CCOC(=O)C1=C2CN(CC(=O)OC)C(=O)CN2C(c2nccs2)=N[C@H]1c1ccc(F)cc1Br [Example 106]	1000 to 5000	1000 to 5000

SMILES	EC50 [1] [nM]	EC50 [2] [nM]
CCOC(=O)C1=C2C[C@@H](CS(C)(=O)=O)CN2C(c2nccs2)=N[C@H]1c1ccc(F)cc1Br [Example 113]	100 to 500	100 to 500
CCOC(=O)C1=C2C[C@H](CS(C)(=O)=O)CN2C(c2nccs2)=N[C@H]1c1ccc(F)cc1Br [Example 114]	100 to 500	100 to 500
CCOC(=O)C1=C2CN(Cc3ccc(OC)cc3)C[C@@H](C(=O)OC)N2C(c2nccs2)=N[C@H]1c1ccc(F)cc1Br [Example 115]	100 to 500	100 to 500
CCOC(=O)C1=C2C[C@@H](NS(=O)(=O)C(C)C)CN2C(c2nccs2)=N[C@H]1c1ccc(F)cc1Br [Example 116]	< 100	< 100
CCOC(=O)C1=C2C[C@H](NS(=O)(=O)C(C)C)CN2C(c2nccs2)=N[C@H]1c1ccc(F)cc1Br [Example 117]	< 100	< 100
CCOC(=O)C1=C2CN(C(=O)C3COC3)CCN2C(c2nccs2)=N[C@H]1c1ccc(F)cc1Br [Example 118]	100 to 500	100 to 500
CCOC(=O)C1=C2C[C@@H](CNC(C)=O)CN2C(c2nccs2)=N[C@H]1c1ccc(F)cc1Br [Example 119]	< 100	< 100
CCOC(=O)C1=C2C[C@H](CNC(C)=O)CN2C(c2nccs2)=N[C@H]1c1ccc(F)cc1Br [Example 120]	< 100	< 100
CCOC(=O)C1=C2C[C@H](CNS(=O)(=O)C3CC3)CN2C(c2nccs2)=N[C@H]1c1ccc(F)cc1Br [Example 121]	< 100	< 100
CCOC(=O)C1=C2C[C@@H](CNS(=O)(=O)C3CC3)CN2C(c2nccs2)=N[C@H]1c1ccc(F)cc1Br [Example 122]	1000 to 5000	1000 to 5000
CCOC(=O)C1=C2C[C@@H](NS(=O)(=O)C(F)F)CN2C(c2nccs2)=N[C@H]1c1ccc(F)cc1Br [Example 123]	< 100	< 100
CCOC(=O)C1=C2C[C@H](NS(=O)(=O)C(F)F)CN2C(c2nccs2)=N[C@H]1c1ccc(F)cc1Br [Example 124]	< 100	< 100
CCOC(=O)C1=C2C[C@H](NS(C)(=O)=O)CN2C(c2nccs2)=N[C@H]1c1ccc(F)cc1Cl [Example 125]	< 100	< 100
CCOC(=O)C1=C2C[C@@H](NS(C)(=O)=O)CN2C(c2nccs2)=N[C@H]1c1ccc(F)cc1Cl [Example 126]	< 100	< 100
CCOC(=O)C1=C2C[C@@H](N(C)S(C)(=O)=O)CN2C(c2nccs2)=N[C@H]1c1ccc(F)cc1Br [Example 127]	< 100	< 100
CCOC(=O)C1=C2C[C@H](NS(=O)(=O)C(F)F)CN2C(c2nccs2)=N[C@H]1c1ccc(F)cc1Cl [Example 128]	< 100	< 100
CCOC(=O)C1=C2C[C@H](NS(=O)(=O)/C=C/F)CN2C(c2nccs2)=N[C@H]1c1ccc(F)cc1Cl [Example 129]	< 100	< 100
CCOC(=O)C1=C2C[C@H](N3CCOCC3)CN2C(c2nccs2)=N[C@H]1c1ccc(F)cc1Cl [Example 130]	< 100	< 100
CCOC(=O)C1=C2C[C@H](N3CCCC3C(=O)OC)CN2C(c2nccs2)=N[C@H]1c1ccc(F)cc1Cl (stereo partly shown) [Example 131]	1000 to 5000	1000 to 5000
CCOC(=O)C1=C2C[C@H](NS(=O)(=O)c3cnn(C)c3)CN2C(c2nccs2)=N[C@H]1c1ccc(F)cc1Cl [Example 132]	< 100	< 100
CCOC(=O)C1=C2C[C@H](NC(=O)C(F)F)CN2C(c2nccs2)=N[C@H]1c1ccc(F)cc1Cl [Example 133]	100 to 500	100 to 500
CCOC(=O)C1=C2CN(Cc3ccc(OC)cc3)S(=O)(=O)CN2C(c2nccs2)=N[C@H]1c1ccc(F)cc1Br [Example 134]	1000 to 5000	1000 to 5000
